These results are taken from patent EP2769723A1, “Compounds for use in inhibiting HIV capsid assembly” (priority 2013, dated 2014).

Like-named read-outs stand apart in the source and are kept apart here.

The target of one data set is T1, CA (Human immunodeficiency virus type 1 group M subtype B, UniProt P12493).
T1 construct: a fusion protein of CA with glutathione-S-transferase (CA-GST)
Nature of the data set: ALPHA screen (AlphaScreen): inhibition of CAI binding to CA. On the set-up: species or system HIV-1. The method, then:
The AlphaScreen experiments are performed using Perkin Elmer Enspire plate reader in white 96-well ProxiPlates and PBS supplemented with 0.05% Tween20, 2mM DTT, 2% DMSO. First, Streptavidin-coated Donor beads are used to capture the CAI-biotin peptide. In the other solution, a fusion protein of CA with glutathione-S-transferase (CA-GST) is mixed with GSH Acceptor beads. Both mixtures were incubated and then mixed together. To test the ability of prepared organic compounds to inhibit the CAI binding to CA, they are screened at concentrations between 0.5-100 µM and IC50 values are calculated from the influenced signals.
Upon illumination by laser at 680 nm, Donor beads containing the photosensitizer phthalocyanine convert ambient oxygen to an excited form of singlet oxygen ^1O2. Singlet oxygen can within its half-life of ~ 4 µs diffuse approximately 200 nm in solution. If an Acceptor bead is within that proximity, which is mostly upon CA:CAI interaction, energy is transferred from the singlet oxygen to thioxene derivates within the Acceptor and signal at 520 - 620 nm is emitted.

Another data set relates to wild type NL4.3 HIV-1. Nature of the data set: Tissue culture infectivity test, TZM titration of supernatants from infected TZM cells. It counts as cell-based. The settings on record: Human immunodeficiency virus 1, TZM. As to the method:
Hits selected in the YFP-screen were further evaluated in the tissue culture experiments with cells infected with the wild type NL4.3 HIV-1. The virus for infection was obtained from co-culture of MT4 cells. The MT4 cells co-culture was synchronized for one week and then used for the infection of fresh MT 4 cells. 48 hrs post-infection was the culture supernatant harvested, cleared by the filtration through […] filter and stored in -80 °C in 1 ml aliquots. Amount of virus was quantified by enzyme-linked immuno sorbent assay (ELISA) with antibodies against HIV-1 CA (3 ng of CA/ml) and blue cell assay (1x10^5 IU/ml), which gives 3 x 10^4 IU/ng of CA.
For compounds testing the TZM cells were seeded on 96-well plate in the density 5 x 10^3 cells per well. The culture media was aspirated approx. 16 hrs later and cells were infected by the wild type NLA.3 HIV-1 by addition of 50J..il of prepared virus stock diluted with 50 µl of complete DMEM. The compounds were added twice to ensure that there are not any preassembled viruses present at the time of their addition. Compounds were first added 8 hrs post-infection and then 24 hrs later. In both cases the old culture media were replaced by 100 µl of fresh complete DMEM prior to the compounds addition. Different compounds concentrations were tested, but the DMSO concentration never exceeded 1 % DMSO. As controls were used cells treated only with 1 % DMSO and cells treated with 0,1 µM Lopinavir (HIV-1 protease inhibitor). Supernatant was harvested 24 hrs after the second compound addition, i.e. 56 hrs post-infection. Harvested supernatants were immediately titrated on the fresh TZM cells in aim to perform the infectivity assay (TZM titration), or inactivated by addition of Triton X-100 to the final concentration 0.025 % for further ELISA analysis.
TZM titration was performed on the cells seeded day before on 96-well plate in the density 5 x 10^3 cells per well. The analysis was performed for each compound concentration at three different dilutions and in duplicates. The culture media was aspired and cells were lysed 48 hrs post-infection by addition of 100 µl of SteadyGlo luciferase substrate (Promega) diluted 1 : 1 by complete DMEM. The luminescence signal was measured on Luminoskan Ascent (Thermo Labsystems) after the transfer of 80 µl of lysate to the flat bottom white polystyrene assay plates (Costar).

A short description of the next data set: in vitro. The settings on record: human. The class given is cell-based. The method, then:
(§1) Cytotoxicity of selected hits tested in the assay with NL4.3 infected cells was determined by MTT test. TZM cells were seeded on the previous day on 96-well plate in the density 5 x 10^3 cells per well. The tested compounds were added in different concentrations, but the DMSO concentration never exceeded 1 % DMSO. As controls were used cells treated only with 1 % DMSO (non-toxic concentration) and cells treated with 5 % DMSO (toxic concentration). 20 µl of the CellTiter 96 Aqueous One substrate (Promega) was added to the 100 µl of culture media 48 hrs after the compounds addition and the color development was quantified 4 hrs later by measuring the absorbance at 490 nm on Saphire reader. Compounds were consider non-cytotoxic (at given concentrations) when the measured values were higher than 80 % of the value of 1 % DMSO treated cells.

Another data set concerns TZM cells. The experiment in a line: in vitro. The class given is cell-based. The conditions noted are these: Table 4; non-cytotoxic when values higher than 80 % of 1 % DMSO treated cells. As to the method:
as §1

Data set [1] can be described thus: Solubility observations (DMSO, ITC buffer). It counts as physicochemical.
For the next data set, the target named is HIV capsid protein (Human immunodeficiency virus type 1 group M subtype B, UniProt P12493). The experiment in a line: Isothermal titration calorimetry (ITC), whole capsid protein. The class given is binding. The settings on record: dissociation constant. As to the method: (§2) The binding of CA ligand AMR-346 to the HIV capsid protein and its C-terminal part was monitared using a VP-ITC microcalorimeter (MicroCal Inc., Northampton, USA) at 25 °C. The solutions of reactants were prepared in 30 mM MES, pH 6.0 containing 10 % glycerol, 2 mM 2-mercaptoethanol, 2 % DMSO, and the exact concentrations of proteins were determined by amino acid analysis. […] The isothermal titration was used to estimate the ligand concentration and the binding parameters were calculated for situation when single AMR-346 molecule binds to monomer or dimer of protein, respectively. Typically, 9 µl aliquots of AMR-346 were injected stepwise into the sample cell containing 1.43 ml of 7 µM protein until saturation was achieved. The experiment was accompanied by a corresponding control experiment in which AMR-346 was injected into buffer alone. The association constants were determined by software developed by MicroCal.
The CA ligand AMR-346 binds to monomer of HIV capsid protein or its C-terminal part with dissociation constants of 230 nM or 50 nM, respectively. For the binding mode of single molecule AMR-346 toward dimeric capsid protein and its C-terminal part, the dissociation constants were estimated to be 120 nM and 26 nM, respectively. Table 4: Synthesized and tested compounds

Data set [2] concerns the target HIV capsid protein C-terminal part (Human immunodeficiency virus type 1 group M subtype B, UniProt P12493). The experiment in a line: Isothermal titration calorimetry (ITC), C-terminal part. The settings on record: dissociation constant. The class given is binding. The method, then: Upper graph: raw experimental data. Lower graph: Fit (line) to the integrated heats (full circles) from each injection, corrected for the heat of dilution of CA ligand AMR-346.
as §2
The CA ligand AMR-346 binds to monomer of HIV capsid protein or its C-terminal part with dissociation constants of 230 nM or 50 nM, respectively. […]

[3] abbreviates: CAI-biotin peptide / CA-GST, compounds screened at 0.5-100 µM, read-out: α screen IC50.
[4] abbreviates: Table 4, non-cytotoxic when values higher than 80 % of 1 % DMSO treated cells, read-out: toxicity LC50.
[5] abbreviates: Table 5, MTT cytotoxicity test, read-out: CC50.
[6] abbreviates: read-out: tissue culture IC50 (µM).

Consider `c1cncc(-c2nc(Nc3ccc4[nH]nnc4c3)c3ccccc3n2)c1` [AMR.325], for which the IC50 on CA (setting [3]) is > 200 µM; with wild type NL4.3 HIV-1, 6.9 µM. The CC50 at 48 h in the data set “in vitro” (tzm cells, Table 5, MTT cytotoxicity test, read-out: CC50) was 200 µM.

As to `CNc1ccc([N+](=O)[O-])cc1Nc1nc(-c2cccnc2)nc2ccccc12` [AMR.494], the IC50 at CA (setting [3]) worked out at 0.9 µM; in the data set with wild type NL4.3 HIV-1, 1.8 µM. Also, the CC50 at 48 h in “in vitro” (setting [4]) was ~15 µM; in “in vitro” (setting [5]), 16.1 µM.

For the molecule `FC(F)(F)c1cccc(Nc2nc(-c3cccnc3)nc3cc(C(F)(F)F)ccc23)c1` [OSR-201], the IC50 with wild type NL4.3 HIV-1 was 8.5 µM; with wild type NL4.3 HIV-1 (setting [6]), ~8 µM. For the same molecule, the CC50 at 48 h in “in vitro” (setting [5]) worked out at 25 µM. For the same molecule, the “toxicity LC50 (µM)” value with TZM cells was “non-toxic”.

As for `NC(=O)c1c(F)cccc1Nc1nc(-c2ccccn2)nc2ccccc12` [OSR-85], the IC50 in the data set on wild type NL4.3 HIV-1 is 6.5 µM; with wild type NL4.3 HIV-1 (setting [6]), ~8 µM. Besides, the CC50 at 48 h in “in vitro” (setting [5]) is 125 µM. In the data set on TZM cells, the “toxicity LC50 (µM)” value was “non toxic”.

With `Cl.O=C(O)c1cc(O)ccc1Nc1nc(-c2cccnc2)nc2ccccc12` [5-hydroxy-2-(2-(pyridin-3-yl)quinazolin-4-ylamino)benzoic acid hydrochloride], in data set [1], the “solubility in DMSO” value is on record as “insolubility in DMSO”.

As for `CCOC(=O)c1ccc(Nc2nc(-c3ccncc3)nc3ccccc23)cc1` [AMR.346], the results for the IC50 at CA and in the data set with wild type NL4.3 HIV-1 (setting [6]) were 7.2 µM and ~15 µM, respectively. Also, the “toxicity LC50 (µM)” value with TZM cells was “non-toxic”. Also, the Kd was 0.23 µM on HIV capsid protein (one ligand binds to monomer of HIV capsid protein, 25 °C, pH 6.0); 0.12 µM at HIV capsid protein (single molecule binds to dimeric capsid protein, estimated); 0.05 µM in data set [2] (one ligand binds to monomer of C-terminal part, 25 °C, pH 6.0); 0.026 µM in data set [2] (single molecule binds to dimeric C-terminal part, estimated). Also, the solubility entry in data set [1] (30 mM MES, pH 6.0, 10 % glycerol, 2 % DMSO, concentration required for ITC) is recorded as “low solubility”.

For the molecule `Fc1cc(Nc2nc(-c3cccnc3)nc3ccccc23)cc(F)c1F` [OSR-199], the IC50 in the data set with wild type NL4.3 HIV-1 is 5.1 µM; with wild type NL4.3 HIV-1 (setting [6]), ~5 µM. Moreover, the CC50 at 48 h in the data set “in vitro” (setting [5]) stood at 100 µM. Further, the “toxicity LC50 (µM)” value with TZM cells was “non-toxic”.

On to `O=[N+]([O-])c1ccc(Nc2nc(-c3cccnc3)nc3ccccc23)c(I)c1` [KP-108], for which, in the data set on wild type NL4.3 HIV-1 (setting [6]), the 50% inhibitory concentration (IC50) is ~1.5 µM. In “in vitro” (setting [4]), the CC50 at 48 h was ~20 µM.

With `CNc1ccc([N+](=O)[O-])cc1Nc1nc(-c2ccc(C(=O)c3ccccc3)cc2)nc2ccccc12` [OSR-77], the IC50 in the data set on wild type NL4.3 HIV-1 is 2 µM; in the data set on wild type NL4.3 HIV-1 (setting [6]), ~3 µM. In addition, the CC50 at 48 h in the data set “in vitro” (setting [4]) was ~7 µM; in the data set “in vitro” (setting [5]) it was 7.1 µM.

Consider `O=[N+]([O-])c1ccc(F)c(Nc2nc(-c3cccnc3)nc3cc(C(F)(F)F)ccc23)c1` [OSR-178], for which the 50% inhibitory concentration (IC50) was 1.5 µM with wild type NL4.3 HIV-1 and ~5 µM in the data set on wild type NL4.3 HIV-1 (setting [6]). Also, the CC50 at 48 h is ~11 µM in the data set “in vitro” (setting [4]) and 5 µM in “in vitro” (setting [5]).

Turning to `Clc1cc(Nc2nc(-c3cccnc3)nc3ccccc23)cc(Cl)c1Cl` [KP-253], the “solubility in DMSO” value in data set [1] is reported as “insoluble in DMSO”.

Consider `c1cncc(-c2nc(SCCSc3nc(-c4cccnc4)nc4ccccc34)c3ccccc3n2)c1` [OSR-291], for which, in data set [1], the “solubility in DMSO” value is listed as “insoluble in DMSO”.

As to `OCc1ccc(Nc2nc(-c3cccnc3)nc3ccccc23)cc1` [KP-236], the IC50 in the data set on wild type NL4.3 HIV-1 (setting [6]) was ~10 µM. Further, the CC50 at 48 h in “in vitro” (setting [4]) was ~10 µM.
